According to patent publication US11268068B2, “In vitro model of metastatic cancer” (THE JOHNS HOPKINS UNIVERSITY, priority 2014, dated 2022):

Tests used:
[1] = tested on: parental and rs-monolayer population of Huh7 cells; assay: Chemosensitivity assay (cell viability after 3-BrPA); type: cell-based, human; conditions: Huh7 (luc-Huh7) cells, rs-monolayer vs parental monolayer, FIG. 7B
Protocol: Assessment of the chemosensitivity of parental cell population and rs-monolayer population was performed using the antiglycolytic agent, 3-bromopyruvate (3-BrPA). In brief, cells were plated in 96-well plates the day before treatment. Analysis of cell viability following the addition of 3-BrPA was performed as described other cell lines^22.

[2] = tested on: human cancer cells in 3D-culture; conditions: Gomes et al., Oncogene 2015; cited from earlier work

SMILES	IC50 of rs-monolayer cells compared to the parental population [1]	IC50 of rs-monolayer cells compared to the parental population ([1]; listed as 3-bromopyruvate)	Sensitivity of 3D-culture compared with corresponding monolayer culture [2]
O=C(O)C(=O)CBr [3-BrPA, 3-bromopyruvate]	An increase in IC50 of rs-monolayer cells compared to the parental population	rs-monolayer cells require a higher concentration of drug	
COc1cccc2c1C(=O)c1c(O)c3c(c(O)c1C2=O)C[C@@](O)(C(=O)CO)C[C@@H]3O[C@H]1C[C@H](N)[C@H](O)[C@H](C)O1 [doxorubicin]			more sensitive
